Experimental findings from ChEMBL document CHEMBL3507680, “University of Dundee, Gates Library screen for HepG2 cell viability” are described below.

This data set is described as follows: Human HepG2 cell viability assay in 384 well format. The class given is toxicity, cell-based. Set-up: dose 125 nL, time 70.5 hour; concentration not given beside the values. The following applies: HepG2 cells, read-out: Inhibition.

Structures are written as SMILES.

In the case of `Cc1cnn(CC2CCCN2Cc2noc(-c3ccccc3)n2)c1` (stereo not drawn), the cytotoxicity at 70.5 h is -9.63%.

Turning to `Cc1cnn(CC2CN(CCc3ccccn3)CCO2)c1` (stereo not drawn), the cytotoxicity at 70.5 h is -7.7%.

As to `CCc1nc(CN2CCCC2c2c(C)nn(C)c2OC)no1` (stereo not drawn), the cytotoxicity at 70.5 h was -3.81%.

On to `NC(=O)C1CCCN(c2ccc(CNC(=O)c3cc[nH]n3)cc2)C1` (stereo not drawn), for which the cytotoxicity at 70.5 h was 5.04%.

On to `Cc1cnn(CC2CN(CC(=O)Nc3ccncc3)CCO2)c1` (stereo not drawn), for which the cytotoxicity at 70.5 h is -5.95%.

Turning to `CC(=O)NCCNC(=O)CN1CCOC(Cn2cc(C)cn2)C1` (stereo not drawn), the cytotoxicity at 70.5 h is -5.91%.

Regarding `O=C(c1ccc2c(c1)OCCO2)N1CCCC(n2ccnc2)C1` (stereo not drawn), the cytotoxicity at 70.5 h is -4.86%.

Take `Cc1ccc(-c2nc(CN3CCCCC3Cn3cncn3)no2)cc1` (stereo not drawn): the cytotoxicity at 70.5 h is -7.36%.

In the case of `Cc1nn(C)c(C)c1C1CCCN1C(=O)c1ccc(N(C)C)nn1` (stereo not drawn), the cytotoxicity at 70.5 h is -6.36%.

For the compound `Cc1nc(C(=O)N2CCCC2c2c(C)nn(C)c2Cl)ccc1C#N` (stereo not drawn), the cytotoxicity at 70.5 h is -4.22%.

As to `Cc1nn(C)c(C)c1C1CCCN1C(=O)c1cnccn1` (stereo not drawn), the cytotoxicity at 70.5 h was -2.94%.

In the case of `Cc1cc(C)n(CC2CCCN2Cc2nc(N)c3ccccc3n2)n1` (stereo not drawn), the cytotoxicity at 70.5 h was -3.06%.

For the compound `Cc1cnn(CC2CCCN2Cc2noc(C3CC3)n2)c1` (stereo not drawn), the cytotoxicity at 70.5 h was found to be 0.359%.

`COc1c(C2CCCN2Cc2nc(C)c(C)o2)c(C)nn1C` (stereo not drawn): the cytotoxicity at 70.5 h is -7.8%.

Regarding `Cc1cnn(CCNCc2ccccc2OCc2ccncc2)c1`, the cytotoxicity at 70.5 h came out at 3.09%.

Take `Cc1nc(C)n(CC2CCCN2Cc2nc3ccccc3c(=O)[nH]2)n1` (stereo not drawn): the cytotoxicity at 70.5 h was -1.61%.

Turning to `Cc1nc(C(=O)N2CCCC2c2c(C)nn(C)c2C)cs1` (stereo not drawn), the cytotoxicity at 70.5 h is -3.9%.

In the case of `Cc1nn(C)c(N(C)C)c1CNCc1ccccc1Cn1ccnc1`, the cytotoxicity at 70.5 h was -1.82%.

Take `Cc1cnn(CCNCc2ccccc2OCc2ccccn2)c1`: the cytotoxicity at 70.5 h is -0.163%.

On to `Cc1nc(C)n(CC2CCCN2Cc2nc3ccccc3s2)n1` (stereo not drawn), for which the cytotoxicity at 70.5 h is -5.56%.

Consider `Cc1ccccc1OCCN1CCn2c(C)nnc2C1`, for which the cytotoxicity at 70.5 h was found to be 25.1%.

Take `Cc1cc(C)cc(OCCN2CCn3c(C)nnc3C2)c1`: the cytotoxicity at 70.5 h was -4.98%.

Take `CCn1ncc2c1CCCC2NCc1cccc2c1OCO2` (stereo not drawn): the cytotoxicity at 70.5 h stood at 15.8%.

`Cc1ncccc1CNCC1CCN(CC(C)O)CC1` (stereo not drawn): the cytotoxicity at 70.5 h is -4.39%.

As for `CC(C)Oc1ncccc1CNC(=O)Nc1ccccn1`, the cytotoxicity at 70.5 h is 0.773%.

In the case of `CC(NCc1ccccc1Cl)c1ccc(OCC(=O)NC2CC2)cc1` (stereo not drawn), the cytotoxicity at 70.5 h stood at 0.704%.

As for `Cc1cccc(CNC(C)c2ccc(OCC(=O)NC3CC3)cc2)c1` (stereo not drawn), the cytotoxicity at 70.5 h was -0.442%.

As to `CCN(Cc1nc2c(cnn2C)c(=O)[nH]1)c1ccccc1`, the cytotoxicity at 70.5 h was 3.68%.

As for `Cn1ncc2c1CCCC2NCc1cccc2c1OCCCO2` (stereo not drawn), the cytotoxicity at 70.5 h worked out at 0.963%.

Take `Cc1cc(C)n(CC2CN(c3ncnc4[nH]ccc34)CCO2)n1` (stereo not drawn): the cytotoxicity at 70.5 h came to 1.04%.

`CC(Cn1cccn1)NCc1ccc(OCc2ccncc2)cc1` (stereo not drawn): the cytotoxicity at 70.5 h came to 3.19%.

For `Cc1cnn(CC(C)NCc2ccc(OCC(N)=O)cc2)c1` (stereo not drawn), the cytotoxicity at 70.5 h turned out to be 11.6%.

Take `Cc1ccc(CNCC2CCN(CC(O)c3ccccc3)CC2)o1` (stereo not drawn): the cytotoxicity at 70.5 h was -1.65%.

`Cc1cnn(CC2CN(c3ncnc4[nH]ccc34)CCO2)c1` (stereo not drawn): the cytotoxicity at 70.5 h is 1.56%.

`O=C(Nc1ccccc1)N1CCN(Cc2noc(C3CC3)n2)CC1`: the cytotoxicity at 70.5 h is -7.64%.

Regarding `Cc1ccccc1NC(=O)N1CCN(Cc2noc(C3CC3)n2)CC1`, the cytotoxicity at 70.5 h is 1.73%.

For the compound `CCn1ncc2c1CCCC2NCc1ccc2c(c1)CCO2` (stereo not drawn), the cytotoxicity at 70.5 h is -0.486%.

For `COc1ccc(COCC(O)CNC(=O)c2cccc(OC)c2)cc1` (stereo not drawn), the cytotoxicity at 70.5 h was -0.933%.

Consider `CCc1n[nH]c(C2CN(CCCS(C)(=O)=O)CCO2)n1` (stereo not drawn), for which the cytotoxicity at 70.5 h is 32.1%.

`CC(C)n1ccnc1CN1CCCN(C(=O)CC2CCCO2)CC1` (stereo not drawn): the cytotoxicity at 70.5 h came out at 23.9%.

For `FC(F)(F)COCCN1CCOC(Cn2cccn2)C1` (stereo not drawn), the cytotoxicity at 70.5 h is -0.0607%.

As for `COCCC(=O)N1CCCN(Cc2nccn2C(C)C)CC1`, the cytotoxicity at 70.5 h is -1.06%.

Take `CC(C)(C)c1nc(CN(Cc2cccs2)CC2CCCO2)no1` (stereo not drawn): the cytotoxicity at 70.5 h came to 3.58%.

`CCc1n[nH]c(C2CN(CCS(C)(=O)=O)CCO2)n1` (stereo not drawn): the cytotoxicity at 70.5 h was -0.712%.

In the case of `Cn1ccnc1CN1CCCN(C(=O)COC2CCCC2)CC1`, the cytotoxicity at 70.5 h was -2.98%.

`CCc1nc(CN2CCCN(c3nn4cc(C)nc4s3)CC2)no1`: the cytotoxicity at 70.5 h amounted to 23.9%.

Consider `O=C(Cc1csc(-c2ccco2)n1)N1CCSCC1`, for which the cytotoxicity at 70.5 h is -11.7%.

Consider `Cc1ccc(C(=O)NC2CCN(Cc3cccc4c3OCCO4)CC2)s1`, for which the cytotoxicity at 70.5 h was -2.59%.

As for `Cc1cccc(C2(C(=O)NCC3CCN(CC(F)(F)F)C3)CCC2)c1` (stereo not drawn), the cytotoxicity at 70.5 h is -1.39%.

Consider `CNC(=O)C1CCN(C(=O)NCCc2ccc(Cl)s2)CC1`, for which the cytotoxicity at 70.5 h was -5.01%.

In the case of `c1ccc(-n2ccc(CN3CCCC(Cn4cncn4)C3)n2)cc1` (stereo not drawn), the cytotoxicity at 70.5 h came out at 0.226%.

As to `COc1cccc(C(=O)N2CCC(Nc3ccc(C)nn3)CC2)c1`, the cytotoxicity at 70.5 h amounted to 1.25%.

Take `Cc1ccc(F)c(C(=O)N2CCC(Nc3ccc(C)nn3)CC2)c1`: the cytotoxicity at 70.5 h was -2.35%.

For the compound `CCn1c(C)cc(C(=O)N2CCc3nnc(N)cc3C2)c1C`, the cytotoxicity at 70.5 h was -0.105%.

As for `O=C(O)c1cc(S(=O)(=O)Nc2ccc(F)cc2Cl)cc2c1OCCO2`, the cytotoxicity at 70.5 h is 0.949%.

For `O=C(O)c1cc(S(=O)(=O)Nc2ccc(F)c(Cl)c2)cc2c1OCCO2`, the cytotoxicity at 70.5 h was 3.36%.

For the compound `O=C(O)c1cc(S(=O)(=O)Nc2cc(F)cc(F)c2)cc2c1OCCO2`, the cytotoxicity at 70.5 h was -4.5%.

Consider `c1cnnc(N2CCCC2CNc2ncnc3ccsc23)c1` (stereo not drawn), for which the cytotoxicity at 70.5 h is -1.29%.

Regarding `CC(C)N1CCN(C(=O)Cc2csc(-c3ccco3)n2)CC1`, the cytotoxicity at 70.5 h was -0.696%.

Turning to `Cc1cc(C(C)NC(=O)N2CCC(n3cncn3)CC2)c(C)s1` (stereo not drawn), the cytotoxicity at 70.5 h is -17.7%.

On to `CC(Cn1cccn1)NC(=O)N(C)Cc1ccc(Cl)s1` (stereo not drawn), for which the cytotoxicity at 70.5 h is -16.6%.

With `CCCc1noc(CN2CCCC2c2ccsc2)n1` (stereo not drawn), the cytotoxicity at 70.5 h was -17.8%.

Take `CN(CC(=O)N1CCCC1Cn1cccn1)c1cnccn1` (stereo not drawn): the cytotoxicity at 70.5 h is -19.4%.

With `Clc1snnc1CN1CCCCC1Cn1cncn1` (stereo not drawn), the cytotoxicity at 70.5 h amounted to 11.8%.

As for `c1cnn(CCN2CCOC(Cn3cncn3)C2)c1` (stereo not drawn), the cytotoxicity at 70.5 h amounted to 6.43%.

For `COc1c(C)cnc(CN2CCCCC2Cn2nc(C)nc2C)c1C` (stereo not drawn), the cytotoxicity at 70.5 h was 16.8%.

For the compound `CNC(=O)CS(=O)(=O)Cc1cc(Cl)c2c(c1)OCCCO2`, the cytotoxicity at 70.5 h was found to be 25.7%.

As for `COc1ccc(S(=O)(=O)NCc2cccnc2N(C)C)cc1F`, the cytotoxicity at 70.5 h came out at 40.3%.

For `Cc1csc(NC(=O)CN2CCC(c3ccnn3CCO)CC2)n1`, the cytotoxicity at 70.5 h was 33.6%.

Turning to `c1cnn(CC2CN(Cc3ccc(-n4ccnc4)cc3)CCO2)c1` (stereo not drawn), the cytotoxicity at 70.5 h stood at 12.9%.

`CCOc1ccnc(N2CCN(C(=O)c3cc(Cl)c[nH]3)CC2)n1`: the cytotoxicity at 70.5 h was found to be 25.8%.

As for `Cc1cnn(CCC(=O)N2CCN(c3nc(C)cs3)CC2)c1`, the cytotoxicity at 70.5 h was 30.3%.

As for `c1cnn(-c2ccc(CN3CCOC(Cn4cncn4)C3)cc2)c1` (stereo not drawn), the cytotoxicity at 70.5 h turned out to be 18.2%.

Take `O=C(CN1CCCCC1Cn1cncn1)NCCC1=CCCCC1` (stereo not drawn): the cytotoxicity at 70.5 h came out at 32%.

With `Nc1cc2c(nn1)CCN(C(=O)CC1CCCC1)C2`, the cytotoxicity at 70.5 h came out at 3.78%.

`COc1c(C2CCCN2C(=O)Cc2c(C)noc2C)c(C)nn1C` (stereo not drawn): the cytotoxicity at 70.5 h amounted to 11%.

Turning to `CS(=O)(=O)NCCCN1CCCC1Cc1ccccc1` (stereo not drawn), the cytotoxicity at 70.5 h came out at 4.23%.

Turning to `CS(=O)(=O)NCCCN1CCCCC1c1cc2ccccc2[nH]1` (stereo not drawn), the cytotoxicity at 70.5 h came to 33.9%.

Regarding `O=C(CN1CCCCC1Cn1cncn1)NCc1ccccn1` (stereo not drawn), the cytotoxicity at 70.5 h was -4.27%.

In the case of `CN(Cc1ccc(F)cc1)C(=O)CN1CCCC(Cn2cncn2)C1` (stereo not drawn), the cytotoxicity at 70.5 h was determined as 3.89%.

With `c1ccc(CN2CCCC2Cn2cncn2)nc1` (stereo not drawn), the cytotoxicity at 70.5 h came out at 7.22%.

Take `CN1CCOC(CNCc2coc(-c3cccs3)n2)C1` (stereo not drawn): the cytotoxicity at 70.5 h turned out to be 27.5%.

With `c1cnn(CCNCc2nnc(C3CC3)o2)c1`, the cytotoxicity at 70.5 h came to 48.9%.

Take `CN(C)CC1CN(c2cnc3ccccc3n2)CCO1` (stereo not drawn): the cytotoxicity at 70.5 h is 11.3%.

As to `COc1ccc(C(O)CNc2c(C#N)c(=O)n(C)c(=O)n2C)cc1` (stereo not drawn), the cytotoxicity at 70.5 h turned out to be 3.78%.

Regarding `COc1cc(C(=O)Nc2nc(C)no2)ccc1C`, the cytotoxicity at 70.5 h is 36.1%.

Regarding `O=C1C(NS(=O)(=O)c2cc(F)cc(F)c2)CCN1Cc1ccccc1` (stereo not drawn), the cytotoxicity at 70.5 h was 23.4%.

For the compound `COc1ccc(C2=CCN(C(=O)CN(C)Cc3ccoc3)CC2)cc1`, the cytotoxicity at 70.5 h worked out at 49.4%.

As for `CCCNC(=O)C1CCN(Cc2csc(C(C)(C)C)n2)CC1`, the cytotoxicity at 70.5 h was -9.45%.

As for `Cc1cc(CN2CCN(C(c3ccccc3)c3ccccc3)CC2)no1`, the cytotoxicity at 70.5 h stood at 1.19%.

As for `CC(C)(C)c1nnc(CN2CCOC(Cn3cccn3)C2)o1` (stereo not drawn), the cytotoxicity at 70.5 h stood at 5.79%.

`Cc1cccc(C2(CNC(=O)CCNS(C)(=O)=O)CCCC2)c1`: the cytotoxicity at 70.5 h stood at 27%.

For `CC(C)c1n[nH]c(C(=O)Nc2ccncc2)c1Br`, the cytotoxicity at 70.5 h came to 3.41%.

On to `Cc1nc(CN2CCCC(NCCc3ccccc3Cl)C2)no1` (stereo not drawn), for which the cytotoxicity at 70.5 h was -6.15%.

Take `CCCNC(=O)CN1CCN(Cc2csc(C(C)(C)C)n2)CC1`: the cytotoxicity at 70.5 h worked out at 4.04%.

With `CCc1n[nH]c(C2CN(C(=O)c3cnc(C)s3)CCO2)n1` (stereo not drawn), the cytotoxicity at 70.5 h was found to be 23.1%.

Regarding `CCN1CCN(C2CCN(Cc3cc(C)on3)CC2)C1=O`, the cytotoxicity at 70.5 h is 49.1%.

`O=C(CCc1ccc(Cl)s1)N1CCCC(n2cncn2)C1` (stereo not drawn): the cytotoxicity at 70.5 h came out at 11.3%.

Turning to `CN1CCOC(CNCc2nc(-c3ccccc3)cs2)C1` (stereo not drawn), the cytotoxicity at 70.5 h came to 9.31%.

Take `Cc1noc(C(C)C)c1C(=O)NCC(c1ccsc1)N(C)C` (stereo not drawn): the cytotoxicity at 70.5 h came to 4.78%.

Turning to `CC(O)CN1CCN(Cc2nnc(C3CC3)o2)CC1` (stereo not drawn), the cytotoxicity at 70.5 h is -4%.

In the case of `CN(Cc1nc(-c2ccco2)no1)C1CCCN(c2cccnn2)C1` (stereo not drawn), the cytotoxicity at 70.5 h was -14.4%.

As to `Cc1nc(CSCCC(=O)NCc2cccnc2N(C)C)cs1`, the cytotoxicity at 70.5 h was -13.6%.
